How the values were obtained:
HIV-1 RT pol = HIV-1 RT pol (Human immunodeficiency virus type 1 group M subtype B, UniProt P04585); test: RT polymerase assay; assay type: biochemical
HIV-1 IN (INST activity) = HIV-1 IN (INST activity) (Human immunodeficiency virus type 1 group M subtype B, UniProt P04585); test: biochemical

Cc1ccc(C(=O)c2cc(=O)n(O)c(=O)[nH]2)cc1 [Compound 7a, 3-Hydroxy-6-(4-methylbenzoyl)pyrimidine-2,4(1H,3H)-dione]
IC50 (HIV-1 RT pol): > 10 µM

O=C(c1ccc(C(F)(F)F)cc1)c1cc(=O)n(O)c(=O)[nH]1 [Compound 7b, 3-Hydroxy-6-(4-(trifluoromethyl)benzoyl)pyrimidine-2,4(1H,3H)-dione]
IC50 (HIV-1 RT pol): > 10 µM

O=C(c1ccc(F)cc1)c1cc(=O)n(O)c(=O)[nH]1 [Compound 7c, 6-(4-Fluorobenzoyl)-3-hydroxypyrimidine-2,4(1H,3H)-dione]
IC50 (HIV-1 RT pol): > 10 µM

COC(=O)c1ccc(C(=O)c2cc(=O)n(O)c(=O)[nH]2)cc1 [Compound 7d, Methyl 4-(1-hydroxy-2,6-dioxo-1,2,3,6-tetrahydropyrimidine-4-carbonyl)benzoate]
IC50 (HIV-1 RT pol): > 10 µM

Cc1cc(C)cc(C(=O)c2cc(=O)n(O)c(=O)[nH]2)c1 [Compound 7e, 6-(3,5-Dimethylbenzoyl)-3-hydroxypyrimidine-2,4(1H,3H)-dione]
IC50 (HIV-1 RT pol): > 10 µM

Cc1ccc(-c2ccc(C(=O)c3cc(=O)n(O)c(=O)[nH]3)cc2)cc1 [Compound 8a, 3-Hydroxy-6-(4’-methyl-[1,1’-biphenyl]-4-carbonyl)pyrimidine-2,4(1H,3H)-dione]
IC50 (HIV-1 RT pol): > 10 µM

O=C(c1ccc(-c2ccc(C(F)(F)F)cc2)cc1)c1cc(=O)n(O)c(=O)[nH]1 [Compound 8b, 3-Hydroxy-6-(4’-(trifluoromethyl)-[1,1’-biphenyl]-4-carbonyl)pyrimidine-2,4(1H,3H)-dione]
IC50 (HIV-1 RT pol): > 10 µM
IC50 (HIV-1 IN (INST activity)): > 100 µM

O=C(c1ccc(-c2ccc(F)cc2)cc1)c1cc(=O)n(O)c(=O)[nH]1 [Compound 8c, 6-(4’-Fluoro-[1,1’-biphenyl]-4-carbonyl)-3-hydroxypyrimidine-2,4(1H,3H)-dione]
IC50 (HIV-1 RT pol): > 10 µM

COC(=O)c1ccc(-c2ccc(C(=O)c3cc(=O)n(O)c(=O)[nH]3)cc2)cc1 [Compound 8d, Methyl 4’-(1-hydroxy-2,6-dioxo-1,2,3,6-tetrahydropyrimidine-4-carbonyl)-[1,1’-biphenyl]-4-carboxylate]
IC50 (HIV-1 RT pol): > 10 µM

Cc1cc(C)cc(-c2ccc(C(=O)c3cc(=O)n(O)c(=O)[nH]3)cc2)c1 [Compound 8e, 6-(3’,5’-Dimethyl-[1,1’-biphenyl]-4-carbonyl)-3-hydroxypyrimidine-2,4(1H,3H)-dione]
IC50 (HIV-1 RT pol): > 10 µM

O=C(c1ccc(-c2ccccc2)cc1)c1cc(=O)n(O)c(=O)[nH]1 [Compound 8f, 6-([1,1’-Biphenyl]-4-carbonyl)-3-hydroxypyrimidine-2,4(1H,3H)-dione]
IC50 (HIV-1 RT pol): > 10 µM

O=C(c1cccc(-c2ccccc2)c1)c1cc(=O)n(O)c(=O)[nH]1 [Compound 8g, 6-([1,1’-Biphenyl]-3-carbonyl)-3-hydroxypyrimidine-2,4(1H,3H)-dione]
IC50 (HIV-1 RT pol): > 10 µM

COc1ccc(-c2ccc(C(=O)c3cc(=O)n(O)c(=O)[nH]3)cc2)cc1 [Compound 8h, 3-Hydroxy-6-(4’-methoxy-[1,1’-biphenyl]-4-carbonyl)pyrimidine-2,4(1H,3H)-dione]
IC50 (HIV-1 IN (INST activity)): > 100 µM

O=C(c1ccc(-c2ccc(Cl)c(F)c2)cc1)c1cc(=O)n(O)c(=O)[nH]1 [Compound 8l, 6-(4’-Chloro-3’-fluoro-[1,1’-biphenyl]-4-carbonyl)-3-hydroxypyrimidine-2,4(1H,3H)-dione]
IC50 (HIV-1 RT pol): > 10 µM

CCOCn1c(C(=O)c2ccc(-c3ccccc3)cc2)cc(=O)n(O)c1=O [Compound 16f, 6-([1,1’-Biphenyl]-4-carbonyl)-1-(ethoxymethyl)-3-hydroxypyrimidine-2,4(1H,3H)-dione]
IC50 (HIV-1 RT pol): > 10 µM
IC50 (HIV-1 IN (INST activity)): > 100 µM

CCOCn1c(C(=O)c2cccc(-c3ccccc3)c2)cc(=O)n(O)c1=O [Compound 16g, 6-([1,1’-Biphenyl]-3-carbonyl)-1-(ethoxymethyl)-3-hydroxypyrimidine-2,4(1H,3H)-dione]
IC50 (HIV-1 RT pol): > 10 µM
IC50 (HIV-1 IN (INST activity)): > 100 µM

CCOCn1c(C(C#N)c2cc(C)cc(C)c2)cc(=O)n(O)c1=O (centres unmarked) [Compound 17e, 2-(3,5-Dimethylphenyl)-2-(3-(ethoxymethyl)-1-hydroxy-2,6-dioxo-1,2,3,6-tetrahydropyrimidin-4-yl)acetonitrile]
IC50 (HIV-1 RT pol): > 10 µM
IC50 (HIV-1 IN (INST activity)): > 100 µM

CCOCn1c(C(C#N)c2ccc(-c3ccccc3)cc2)cc(=O)n(O)c1=O (centres unmarked) [Compound 18f, 2-([1,1’-Biphenyl]-4-yl)-2-(3-(ethoxymethyl)-1-hydroxy-2,6-dioxo-1,2,3,6-tetrahydropyrimidin-4-yl)acetonitrile]
IC50 (HIV-1 RT pol): > 10 µM
IC50 (HIV-1 IN (INST activity)): > 100 µM

Reference: PMC6459026 (European journal of medicinal chemistry, 2019)
